In article PMC10643566, “Insights into the mechanism of SARS-CoV-2 main protease autocatalytic maturation from model precursors” (Communications Biology, 2023):
“And” between values parts separate entries of the source, which are not always exact repeats. Equal entries are not always repeated.

Experiments:
MPro^WT = details: read-out: GC373 binding (Kd), determined by ITC, ref [11],[13]; cited from earlier work
[1] = molecular target: MPro^1–199 (catalytic domain); details: read-out: GC373 binding (Kd), determined by ITC, ref [11],[13]; cited from earlier work
[2] = molecular target: MPro^M (E290A and R298A mutations); details: read-out: GC373 binding (Kd), determined by ITC, ref [11],[13]; cited from earlier work
nsp4/nsp5 cleavage site = type: biochemical, SARS-CoV-2

Molecule	Kd (MPro^WT) [nM]	Kd [1] [µM]	Kd [2] [µM]	% Conversion at 15 h (nsp4/nsp5 cleavage site)	% Conversion at 24 h (nsp4/nsp5 cleavage site)	Δ[P] at 24 h (nsp4/nsp5 cleavage site)
CC(C)C[C@H](NC(=O)OCc1ccccc1)C(=O)N[C@H](C=O)C[C@@H]1CCNC1=O [GC373]	150	32 ± 5	6.13 ± 0.3	–	–	–
^(−25)MPro^1–199: precursor with 25 nsp4 residues appended to the N-terminus of catalytic domain MPro^1–199	–	–	–	32.2% and 32.4%	42.2% and 43.2%	40.5 ± 0.4 µM and 20.7 ± 0.2 µM
